# Results taken from patent publication US20230014181A1, “CULTURE SYSTEM AND METHODS FOR IMPROVED MODELING OF NEUROLOGICAL CONDITIONS” (Genentech, Inc., priority 2021, published 2023).
# What was measured:
# [1] = tested on: human iPSC-derived neurons; experiment: 21-day time course of single doses of soluble Aβ42 species on iPSC neurons; type: cell-based; conditions: 1.25 μM
# Method: To investigate whether AD pathologies can be studied in a controlled, in vitro system of human neurons, cultured human iPSC-derived neurons were treated with synthetic Aβ42 oligomers, prepared by oligomerization of Aβ42 monomers at 4° C. following previously published protocols (FIG. 2A; following Stine et al., 2011). Briefly, AggreSure™ β-Amyloid (1-42), human monomers (Anaspec) were resuspended in DMSO followed by PBS to form a 100 μM solution. Aβ42 monomers were subsequently incubated at 4° C. for 24 hours, then frozen at −80° C. to stop the oligomerization process. Five to six lots of Aβ42 monomers were screened at time and assessed for neurotoxic and the degree of toxicity. […] For fluorescent Aβ42 oligomer experiments, Beta-Amyloid (1-42), HiLyte™ Fluor 555-labeled, Human (Anaspec) was used. For pHrodo experiments, Beta-Amyloid (1-42) buman was labeled with pHrodo™ Green AM Intracellular pH Indicator (Invitrogen) according to manufacturer's protocol.
# Prior to experimentation, media volume in wells containing neurons was equalized with liquid handling automation (Bravo) in order to ensure precise control of concentrations. All Aβ42 oligomers, anti-Aβ, small molecules, inflammatory cytokines were prepared at 10× concentration and added to Neuronal Culture Media at an appropriate volume. […]
# [2] = tested on: primary rat cortical neurons; experiment: Aβ42 oligomer toxicity in primary rat cortical neurons; type: cell-based; conditions: several lots
# Method: (§1) Error bars+/−s.e.m. and n=4 wells.
# The preps were determined to contain a heterogeneous mixture of both soluble oligomer and fibrils, and thus were referred to as “soluble Aβ42 species” (Aps).
# [3] = tested on: human iPSC-derived microglia treated with 5 μM soluble Aβ species; experiment: Microglia plaque formation (Methoxy-X04-positive structures) with dynamin inhibitors; type: cell-based; conditions: 0.6 μM for 24 h
# Method: Error bars+/−s.e.m. and n=4 wells; ANOVA ***P<0.001, **P<0.01.
# iPSC derived microglia were obtained and screened for microglia marker expression. iPSC microglia were then differentiated. Briefly, iPSCs were treated with BMP, FGF and activin for 2-4 days to induce mesoderm fate, then treated with VEGF and supportive hematopoietic cytokines for 6-10 days to generate hematopoietic progenitors (HPCs). HPCs were seeded onto matrigel-coated flasks, and treated with IL-34, IDE1 (TGF-β1 agonist), and M-CSF for 3-4 weeks to differentiate into microglia. Human iPSC microglia were validated by immunostaining of the following markers: Goat anti-TREM2 (1:500), Mouse anti-MERTK (1:500), Rabbit anti-IBA1 (1:1000), Rabbit anti-TMEM119 (1:500), CD33 (1:500), CX3CR1 (1:500), CD64 (1:500), P2RY12 (1:500), CD32 (1:500), PU.1 (1:500).
# To further confirm time-lapsed result, an immunostaining time-course study was performed. Microglia took up Aβs within 30 minutes (FIG. 14D). After 6 hours, small internalized puncta disappeared and a larger, faintly X04 positive, Aβ42 aggregate appeared at the edge near each cell (FIG. 14D). After 1 day, larger Aβ42 aggregates with higher X04 staining intensity were seen next to microglia, and additional microglia began to surround these aggregates. At 4 days X04 dye positive plaque structures were present with surrounding microglia. […]
# [4] = tested on: soluble Aβ42 species; experiment: Anti-Aβ antibody co-treatment rescue of soluble Aβ42 species neurotoxicity in iPSC neurons; type: cell-based, human
# Method: as §1
# To investigate whether AD pathologies can be studied in a controlled, in vitro system of human neurons, cultured human iPSC-derived neurons were treated with synthetic Aβ42 oligomers, prepared by oligomerization of Aβ42 monomers at 4° C. following previously published protocols (FIG. 2A; following Stine et al., 2011). Briefly, AggreSure™ β-Amyloid (1-42), human monomers (Anaspec) were resuspended in DMSO followed by PBS to form a 100 μM solution. Aβ42 monomers were subsequently incubated at 4° C. for 24 hours, then frozen at −80° C. to stop the oligomerization process. Five to six lots of Aβ42 monomers were screened at time and assessed for neurotoxic and the degree of toxicity. About twenty lots for screened in the course of 4 years. For fluorescent Aβ42 oligomer experiments, Beta-Amyloid (1-42), HiLyte™ Fluor 555-labeled, Human (Anaspec) was used. […]
# Several additional tau phosphorylation sites observed in AD, S396/404, S217, S235, S400/T403/S404, and T181, were hyperphosphorylated when treated with Aβ42 oligomers (FIGS. 4V-4Z). […] Using this quantitative platform, the half-maximal inhibitory concentration (IC50) for anti-Aβ antibody rescue of MAP2, synapsin, and pTau induction was generated (FIG. 3R).
# [5] = tested on: primary human astrocytes; experiment: Astrocyte GFAP expression in response to soluble Aβ species; type: cell-based; conditions: astrocytes cultured alone; 3DIV
# Method: Error bars+/−s.e.m. and n=4 wells; ANOVA ****P<0.0001, ***P<0.001, **P<0.01.
# Astrocytes were then validated. Briefly, primary human astrocytes were detached using Accumax (Innovative Cell Technologies) and seeded onto 384-well plates coated with 1:100 Geltrex™ (Thermofisher) solution for at least 1 hour in a 37° C. cell incubator. Cells were seeded at a density of 2,000 cells/well in Neuron Maintenance Medium (1× BrainPhys™ Basal (StemCell Technology), 1× B27 with Vitamin A, 1×N-2, 5 μg/mL cholesterol, 1 mM creatine, 10 nM β-estradiol, 200 nM ascorbic acid, 1 mM cAMP (Sigma-Aldrich), 20 ng/mL BDNF, 20 ng/mL GDNF, 1 μg/mL Laminin, 0.5 mM GlutaMAX™ (Thermofisher), 1 ng/mL TGF-β1, 1× normocin, 50 U/mL penicillin-streptomycin). Cells were placed in 37° C. cell incubator for 24 hours to allow for attachment. Aβ42 and antibody treatments were added as described in other Examples. Astrogliosis was validated was validated by immunostaining of the following markers: Guinea Pig anti GFAP (1:500), Rabbit anti EAAT1 (1:500), Rabbit anti vimentin (1:500), Rabbit ALDH1L1 (1:500).
molecule,measurement,setting,value
soluble Aβ42 species: heterogeneous mixture of soluble oligomer and fibrils made from synthetic Aβ42 monomers at 4° C.,dendrite or axon reduction,[1],no effect on dendrite or axon reduction
same,reduction in dendrites or synapses,[2],did not show reduction in dendrites or synapses
CCCCCCCCNC(=O)/C(C#N)=C/c1cn(CCCN(C)C)c2ccccc12 [Dynole 34-2],decrease of plaque formation (Methoxy-X04-positive plaque-like structures),[3],approximately 4 fold
Crenezumab: anti-Aβ antibody,phospho-Tau p396-404 and p400-403-404 upregulation,[4]; NAG-NSC Line 2,blocked
same,loss of dendrites (MAP2) and synapses (synapsin),"[4]; NAG-NSC Line 2 and primary astrocytes, 5 μM soluble Aβ species, 7 days",rescued
same,GFAP upregulation by soluble Aβ species,[5],blocked
O=C(N/N=C/c1ccc(O)c(O)c1)c1cc2ccccc2cc1O [Dynasore],decrease of plaque formation (Methoxy-X04-positive plaque-like structures),[3],approximately 4 fold
